Assay results published in ChEMBL document CHEMBL4321854, “Discovery of a First-in-Class Mitogen-Activated Protein Kinase Kinase 1/2 Degrader” (J Med Chem, 2019).
The source made the active and inactive calls. The rule behind the calls is not given here.

How the values were obtained:
[1] = Toxicity in Swiss albino mouse assessed as effect on clinical signs at 50 mg/kg, ip; assay type: organism-based; settings: in vivo
[2] = target: T1, von Hippel-Lindau disease tumor suppressor/Dual specificity mitogen-activated protein kinase kinase 2/Dual specificity mitogen-activated protein kinase kinase 1 (Homo sapiens) (UniProt P36507+Q02750+P40337); assay: Protac activity against VHL/MEK1/2 in human HT-29 cells harboring with BRAF V600E variant assessed as reduction in phosphorylation of MEK at S218/222 residues at 0.1 to 0.3 after >= 2 hrs by Western blot analysis; assay type: cell-based
[3] = Ratio of Plasma concentration in Swiss albino mouse at 50 mg/kg, ip measured after 8 hrs to GI50 for antiproliferative activity against human SK-MEL-28 cells; assay type: organism-based; settings: in vivo
[4] = target: T1, von Hippel-Lindau disease tumor suppressor/Dual specificity mitogen-activated protein kinase kinase 2/Dual specificity mitogen-activated protein kinase kinase 1 (Homo sapiens); assay: Protac activity against VHL/MEK1/2 in human SK-MEL-28 cells harboring with BRAF V600E variant assessed as phosphorylation of MEK at S218/222 residues at 0.3 uM pretreated with MEK1/2 inhibitor, PD0325901 for 2 hrs followed by incubation with compound for 2 hrs by Western blot analysis; assay type: cell-based
[5] = target: T1, von Hippel-Lindau disease tumor suppressor/Dual specificity mitogen-activated protein kinase kinase 2/Dual specificity mitogen-activated protein kinase kinase 1 (Homo sapiens); assay: Protac activity against VHL/MEK1/2 in human UACC257 cells harboring with BRAF V600E variant assessed as reduction in phosphorylation of MEK at S218/222 residues after 24 hrs by Western blot analysis; assay type: cell-based
[6] = target: T2, von Hippel-Lindau disease tumor suppressor/Dual specificity mitogen-activated protein kinase kinase 1 (Homo sapiens) (UniProt Q02750+P40337); assay: Protac activity against VHL/MEK1 in human HT-29 cells harboring with BRAF V600E variant assessed as degradation of MEK1 at 0.1 to 0.3 uM after 4 hrs by Western blot analysis; assay type: cell-based
[7] = target: von Hippel-Lindau disease tumor suppressor/Dual specificity mitogen-activated protein kinase kinase 1 (Homo sapiens, UniProt Q02750+P40337, V600E); assay: (§1) Protac activity against VHL/MEK1 in human SK-MEL-28 cells harboring BRAF V600E variant assessed as degradation of MEK1 after 24 hrs by Western blot analysis; assay type: cell-based
[8] = target: T2, von Hippel-Lindau disease tumor suppressor/Dual specificity mitogen-activated protein kinase kinase 1 (Homo sapiens); assay: as §1; assay type: cell-based
[9] = Ratio of Plasma concentration in Swiss albino mouse at 50 mg/kg, ip measured after 8 hrs to GI50 for antiproliferative activity against human HT-29 cells; assay type: organism-based; settings: in vivo
[10] = target: T3, von Hippel-Lindau disease tumor suppressor/Dual specificity mitogen-activated protein kinase kinase 2 (Homo sapiens) (UniProt P36507+P40337); assay: Protac activity against VHL/MEK2 in human HT-29 cells harboring BRAF V600E variant assessed as degradation of MEK2 by measuring reduction in MEK2 protein level at 0.5 uM after 24 hrs by Western blot analysis relative to control; assay type: cell-based; design: scale not given: the % may be the effect or the level left
[11] = target: T2, von Hippel-Lindau disease tumor suppressor/Dual specificity mitogen-activated protein kinase kinase 1 (Homo sapiens); assay: Protac activity against VHL/MEK1 in human SK-MEL-28 cells harboring with BRAF V600E variant assessed as degradation of MEK1 at 0.1 to 0.3 uM by Western blot analysis; assay type: cell-based; settings: TDE = time-dependent effect
[12] = target: von Hippel-Lindau disease tumor suppressor/Leukocyte receptor cluster member 8 (Homo sapiens) (UniProt P40337+Q96PV6); assay: Protac activity against VHL/LENG8 in human HT-29 cells harboring with BRAF V600E variant assessed as LENG8 protein level at 0.1 uM after 10 hrs by Western blot analysis; assay type: cell-based
[13] = target: T3, von Hippel-Lindau disease tumor suppressor/Dual specificity mitogen-activated protein kinase kinase 2 (Homo sapiens); assay: (§2) Protac activity against VHL/MEK2 in human UACC257 cells harboring BRAF V600E variant assessed as degradation of MEK2 after 24 hrs by Western blot analysis; assay type: cell-based
[14] = target: T4, von Hippel-Lindau disease tumor suppressor/Dual specificity mitogen-activated protein kinase kinase 2 (Homo sapiens, UniProt P36507+P40337, V600E); assay: as §2; assay type: cell-based
[15] = target: T2, von Hippel-Lindau disease tumor suppressor/Dual specificity mitogen-activated protein kinase kinase 1 (Homo sapiens); assay: Protac activity against VHL/MEK1 in human SK-MEL-28 cells harboring with BRAF V600E variant assessed as degradation of MEK1 at 0.1 to 0.3 uM after 4 hrs by Western blot analysis; assay type: cell-based
[16] = target: T2, von Hippel-Lindau disease tumor suppressor/Dual specificity mitogen-activated protein kinase kinase 1 (Homo sapiens); assay: Protac activity against VHL/MEK1 in human SK-MEL-28 cells harboring with BRAF V600E variant assessed as degradation of MEK1 by measuring reduction in MEK1 protein level at 0.3 uM after 4 hrs by Western blot analysis relative to control; assay type: cell-based; design: scale not given: the % may be the effect or the level left
[17] = target: T2, von Hippel-Lindau disease tumor suppressor/Dual specificity mitogen-activated protein kinase kinase 1 (Homo sapiens); assay: Protac activity against VHL/MEK1 in human HT-29 cells harboring with BRAF V600E variant assessed as degradation of MEK1 by measuring reduction in MEK1 protein level at 0.3 uM after 8 hrs by Western blot analysis relative to control; assay type: cell-based; design: scale not given: the % may be the effect or the level left
[18] = target: T1, von Hippel-Lindau disease tumor suppressor/Dual specificity mitogen-activated protein kinase kinase 2/Dual specificity mitogen-activated protein kinase kinase 1 (Homo sapiens); assay: Protac activity against VHL/MEK1/2 in human SK-MEL-28 cells harboring with BRAF V600E variant assessed as phosphorylation of ERK at T202/Y204 residues at 0.3 uM pretreated with MEK1/2 inhibitor, PD0325901 for 2 hrs followed by incubation with compound for 10 hrs by Western blot analysis; assay type: cell-based
[19] = target: T2, von Hippel-Lindau disease tumor suppressor/Dual specificity mitogen-activated protein kinase kinase 1 (Homo sapiens); assay: Protac activity against VHL/MEK1 in human HT-29 cells harboring with BRAF V600E variant assessed as degradation of MEK1 at 3 to 5 uM after 24 hrs by Western blot analysis; assay type: cell-based
[20] = target: T3, von Hippel-Lindau disease tumor suppressor/Dual specificity mitogen-activated protein kinase kinase 2 (Homo sapiens); assay: Protac activity against VHL/MEK2 in human HT-29 cells harboring with BRAF V600E variant assessed as degradation of MEK2 at 0.1 to 0.3 uM after 4 hrs by Western blot analysis; assay type: cell-based
[21] = Toxicity in Swiss albino mouse assessed as effect on adverse events at 50 mg/kg, ip; assay type: organism-based; settings: in vivo
[22] = Maximum drug concentration in Swiss albino mouse plasma at 50 mg/kg, ip measured after 0.5 hrs by LC-MS/MS analysis; assay type: ADME, organism-based; design: dose 50 mg/kg, route intraperitoneal
[23] = target: T3, von Hippel-Lindau disease tumor suppressor/Dual specificity mitogen-activated protein kinase kinase 2 (Homo sapiens); assay: Protac activity against VHL/MEK2 in human SK-MEL-28 cells harboring with BRAF V600E variant assessed as degradation of MEK2 at 0.1 to 0.3 uM by Western blot analysis; assay type: cell-based; settings: TDE = time-dependent effect
[24] = target: T3, von Hippel-Lindau disease tumor suppressor/Dual specificity mitogen-activated protein kinase kinase 2 (Homo sapiens); assay: Protac activity against VHL/MEK2 in human HT-29 cells harboring with BRAF V600E variant assessed as degradation of MEK2 by measuring MEK2 protein level at 0.3 uM pretreated with VHL ligand, VH 032 for 2 hrs followed by incubation with compound for 10 hrs by Western blot analysis; assay type: cell-based
[25] = target: T1, von Hippel-Lindau disease tumor suppressor/Dual specificity mitogen-activated protein kinase kinase 2/Dual specificity mitogen-activated protein kinase kinase 1 (Homo sapiens); assay: Protac activity against VHL/MEK1/2 in human SK-MEL-28 cells harboring with BRAF V600E variant assessed as phosphorylation of MEK at S218/222 residues at 0.3 uM pretreated with NEDD8-activating enzyme inhibitor, MLN4924 for 2 hrs followed by incubation with compound for 10 hrs by Western blot analysis; assay type: cell-based
[26] = target: T3, von Hippel-Lindau disease tumor suppressor/Dual specificity mitogen-activated protein kinase kinase 2 (Homo sapiens); assay: Protac activity against VHL/MEK2 in human SK-MEL-28 cells harboring with BRAF V600E variant assessed as degradation of MEK2 at 3 to 5 uM after 24 hrs by Western blot analysis; assay type: cell-based
[27] = target: T3, von Hippel-Lindau disease tumor suppressor/Dual specificity mitogen-activated protein kinase kinase 2 (Homo sapiens); assay: Protac activity against VHL/MEK2 in human SK-MEL-28 cells harboring with BRAF V600E variant assessed as degradation of MEK2 by measuring MEK2 protein level at 0.3 uM pretreated with VHL ligand, VH 032 for 2 hrs followed by incubation with compound for 10 hrs by Western blot analysis; assay type: cell-based
[28] = target: T3, von Hippel-Lindau disease tumor suppressor/Dual specificity mitogen-activated protein kinase kinase 2 (Homo sapiens); assay: (§3) Protac activity against VHL/MEK2 in human COLO205 cells harboring BRAF V600E variant assessed as degradation of MEK2 after 24 hrs by Western blot analysis; assay type: cell-based
[29] = target: T4, von Hippel-Lindau disease tumor suppressor/Dual specificity mitogen-activated protein kinase kinase 2; assay: as §3; assay type: cell-based

T1 sequence (P36507 whole entry, looked up): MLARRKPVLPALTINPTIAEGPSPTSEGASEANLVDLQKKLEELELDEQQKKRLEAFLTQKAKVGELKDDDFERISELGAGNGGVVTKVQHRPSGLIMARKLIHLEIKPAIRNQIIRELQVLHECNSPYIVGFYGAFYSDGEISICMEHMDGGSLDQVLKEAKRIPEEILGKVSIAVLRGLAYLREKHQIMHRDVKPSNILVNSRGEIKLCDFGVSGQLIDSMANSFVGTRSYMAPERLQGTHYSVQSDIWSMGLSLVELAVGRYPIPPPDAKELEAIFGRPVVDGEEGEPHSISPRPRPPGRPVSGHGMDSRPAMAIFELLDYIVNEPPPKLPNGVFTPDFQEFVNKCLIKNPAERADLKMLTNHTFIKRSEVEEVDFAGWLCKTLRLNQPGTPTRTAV
T1 sequence (P40337 whole entry, looked up): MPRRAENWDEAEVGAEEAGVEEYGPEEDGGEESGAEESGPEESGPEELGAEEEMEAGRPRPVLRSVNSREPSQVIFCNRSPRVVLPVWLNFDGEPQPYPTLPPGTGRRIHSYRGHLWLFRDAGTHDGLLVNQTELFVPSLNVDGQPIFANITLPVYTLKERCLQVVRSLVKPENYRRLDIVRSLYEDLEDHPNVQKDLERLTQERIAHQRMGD
T1 sequence (Q02750 whole entry, looked up): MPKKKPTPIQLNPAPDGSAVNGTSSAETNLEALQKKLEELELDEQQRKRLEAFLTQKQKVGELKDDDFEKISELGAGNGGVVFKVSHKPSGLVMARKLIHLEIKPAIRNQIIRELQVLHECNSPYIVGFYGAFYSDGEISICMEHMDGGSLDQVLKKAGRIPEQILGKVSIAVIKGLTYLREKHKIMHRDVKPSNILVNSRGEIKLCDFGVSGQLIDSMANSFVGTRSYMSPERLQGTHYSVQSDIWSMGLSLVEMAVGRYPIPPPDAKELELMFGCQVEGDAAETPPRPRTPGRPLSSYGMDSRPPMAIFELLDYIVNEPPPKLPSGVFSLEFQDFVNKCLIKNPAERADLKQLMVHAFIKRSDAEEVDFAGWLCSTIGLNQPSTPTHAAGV
T3 sequence (P36507 whole entry, looked up): as the sequence (P36507 whole entry, looked up) above
T3 sequence (P40337 whole entry, looked up): as the sequence (P40337 whole entry, looked up) above
T2 sequence (P40337 whole entry, looked up): as above
T2 sequence (Q02750 whole entry, looked up): as the sequence (Q02750 whole entry, looked up) above
T4 sequence (P36507 whole entry, looked up, stated change not applied): as the sequence (P36507 whole entry, looked up) above
T4 sequence (P40337 whole entry, looked up, stated change not applied): as the sequence (P40337 whole entry, looked up) above
Sequence of von Hippel-Lindau disease tumor suppressor/Leukocyte receptor cluster member 8 (Homo sapiens) (P40337 whole entry, looked up): as above
Sequence of von Hippel-Lindau disease tumor suppressor/Leukocyte receptor cluster member 8 (Homo sapiens) (Q96PV6 whole entry, looked up): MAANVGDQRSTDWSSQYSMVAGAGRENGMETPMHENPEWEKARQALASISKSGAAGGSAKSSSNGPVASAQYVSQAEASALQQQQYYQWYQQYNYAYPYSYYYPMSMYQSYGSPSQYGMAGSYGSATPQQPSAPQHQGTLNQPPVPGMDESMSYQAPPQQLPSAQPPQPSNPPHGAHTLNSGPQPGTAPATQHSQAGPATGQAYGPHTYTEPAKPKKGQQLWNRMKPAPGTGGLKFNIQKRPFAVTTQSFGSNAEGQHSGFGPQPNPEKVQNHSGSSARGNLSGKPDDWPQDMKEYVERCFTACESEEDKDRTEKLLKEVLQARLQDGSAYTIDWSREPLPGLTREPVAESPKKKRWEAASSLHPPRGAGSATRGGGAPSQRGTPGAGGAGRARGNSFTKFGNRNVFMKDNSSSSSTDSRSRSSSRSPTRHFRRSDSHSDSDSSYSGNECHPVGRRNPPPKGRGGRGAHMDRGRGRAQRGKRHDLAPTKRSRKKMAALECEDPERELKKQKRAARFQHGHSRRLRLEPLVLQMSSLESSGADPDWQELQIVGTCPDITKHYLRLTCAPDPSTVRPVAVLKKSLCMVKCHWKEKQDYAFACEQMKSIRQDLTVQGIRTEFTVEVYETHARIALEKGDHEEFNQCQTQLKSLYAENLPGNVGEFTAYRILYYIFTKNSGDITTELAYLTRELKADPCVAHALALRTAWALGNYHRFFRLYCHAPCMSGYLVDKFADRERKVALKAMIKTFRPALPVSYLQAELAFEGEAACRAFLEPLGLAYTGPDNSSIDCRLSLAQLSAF
Sequence of von Hippel-Lindau disease tumor suppressor/Dual specificity mitogen-activated protein kinase kinase 1 (P40337 whole entry, looked up, stated change not applied): as the sequence (P40337 whole entry, looked up) above
Sequence of von Hippel-Lindau disease tumor suppressor/Dual specificity mitogen-activated protein kinase kinase 1 (Q02750 whole entry, looked up, stated change not applied): as the sequence (Q02750 whole entry, looked up) above

For Cc1ncsc1-c1ccc([C@H](C)NC(=O)[C@@H]2C[C@@H](O)CN2C(=O)[C@@H](NC(=O)CCCCCCCCCCNCCCONC(=O)c2ccc(F)c(F)c2Nc2ccc(I)cc2F)C(C)(C)C)cc1, which Activity [1] is on record?
The Activity was “Non-Toxic”.

What about the Activity [2] of the same compound?
The Activity was “Active”.

And the Ratio [3]?
Its Ratio is 3 to 20.

What about the Activity [4] of the same compound?
Its Activity is “inactive”.

And the Activity [5]?
Its Activity is “Dose-dependent effect”.

What about the Activity [6] of the same compound?
The Activity was “Active”.

And the DC50 [7]?
Its DC50 is 31 nM.

What about the Activity [8] of the same compound?
The Activity was “Dose-dependent effect”.

And the Ratio [9]?
Its Ratio is 3 to 20.

What about the Activity [10] of the same compound?
Its Activity is > 80%.

What about the Activity [11] of the same compound?
The Activity was “Tde”.

And the Activity [12]?
The Activity was “inactive”.

What about the Activity [13] of the same compound?
The Activity was “Dose-dependent effect”.

And the DC50 [14]?
The DC50 was 27 nM.

What about the Activity [15] of the same compound?
Its Activity is “Active”.

And the Activity [16]?
The Activity was > 50%.

And the Activity [17]?
Its Activity is > 80%.

And the Activity [18]?
The Activity was “inactive”.

And the Activity [19]?
Its Activity is “Active”.

And the Activity [20]?
The Activity was “Active”.

What about the Activity [21] of the same compound?
Its Activity is “Non-Toxic”.

And the Cmax [22]?
The Cmax was 1400 nM.

What about the Activity [23] of the same compound?
Its Activity is “Tde”.

What about the Activity [24] of the same compound?
Its Activity is “inactive”.

What about the Activity [25] of the same compound?
The Activity was “inactive”.

What about the Activity [26] of the same compound?
Its Activity is “Active”.

What about the Activity [27] of the same compound?
The Activity was “inactive”.

What about the Activity [28] of the same compound?
Its Activity is “Dose-dependent effect”.

What about the DC50 [29] of the same compound?
The DC50 was 11 nM.
